The source of these data is US12448363B2, “Kinase inhibitors” (Vidya Therapeutics, Inc., priority 2020, dated 2025).

The structures appear in SMILES notation.

For one data set, the target named is BTK (Homo sapiens, UniProt Q06187). In words: Assay to determine BTK inactivation rate in human whole blood (ELISA of unoccupied BTK). It counts as cell-based. Also on record: Human whole blood is obtained from StemExpress; tissue StemExpress; host or cells: human whole blood. The settings on record: 37° C., 5, 15, 30, 60 minutes, read-out: BTK hWB Kinact/Ki. On the procedure:
Human Whole Blood Compound Treatment and Lysis
Human whole blood is obtained from StemExpress and kept at ambient temperature until the time of the experiment. […] This is prepared fresh each experimental day. […] Compounds are reconstituted to stocks of 10 mM and are diluted in two-fold serial dilutions to generate an 8-point curve in DMSO, with the last point being DMSO only, creating a 100× dilution series. A working 10× dilution series is created using 1.0 μL of the prepared DMSO titration, 100×, into […] 1×PBS in order to keep the DMSO constant. The human whole blood is added in the volume of 225 μL per well in a new 96w v-bottom plate, where one column of eight wells is sufficient for testing one compound. For compound treatment, 25 μL of 10× dilution series in PBS is added to the 225 μL whole blood, followed by briefly pipetting up and down twice. The plates are covered with lids and incubated at 37° C. for 5, 15, 30, 60 minutes. At each timepoint, 30 μL of treated blood is pulled from each column and added to preloaded collection plates that contain 30 μL of supplemented lysis buffer and mixed briefly. The collected and lysed samples shake on rotator for 60 minutes at room temperature. These samples are used fresh for detection via ELISA, and remaining sample is frozen at −80° C. if a repeat is necessary.
ELISA: Determining Amount of Unoccupied BTK
All streptavidin pre-coated plates (R&D Systems, #CP004) are brought to room temperature while samples are lysing. Assay Buffer 1, 1×PBS+0.05% Tween 20+1% BSA is prepared and stored at 4° C. when not in use. Using this Assay Buffer, assay buffer+1× protease/phosphatase inhibitor cocktail (PICs) is prepared in the amount needed for all samples. Assay Buffer+PICs in the volume of 90 μL/well is added to the ELISA plate. Lysed blood sample (10 μL) is added to the ELISA plate. BTK recombinant protein dilutions are prepared in assay buffer+PICS for use as a μM). The standard is loaded into the ELISA plate at 100 μL/well, in duplicate. These samples and standards remain in the plate, sealed, overnight at 4° C. The following day, the plate is washed four times with 1× Wash Buffer (1×PBS+0.05% Tween 20) using a plate washer. The plate is inverted to expel all fluid each time and blotted on clean paper towels to remove remaining liquid. Assay Buffer 2 is prepared (1×PBS+0.05% Tween 20+0.05% BSA) and kept at 4° C. when not in use. […] Diluted a-BTK antibody is added at 100 μl/well. The plate is covered with adhesive film and incubated for 90 minutes at room temperature. The plate is washed four times with 1× Wash Buffer (1×PBS+0.05% Tween 20) using a plate washer. The plate is inverted to expel all fluid each time and blotted on clean paper towels to remove remaining liquid. […] The diluted antibody is added at 100 μl/well. The plate is covered with adhesive film and incubated for one hour at room temperature. The plate is washed four times with 1× Wash Buffer using a plate washer. The plate is inverted to expel all fluid each time and blotted on clean paper towels to remove remaining liquid. […] The plate is incubated at room temperature in the dark for −5-10 minutes. The reaction is stopped by adding 50 μl/well 2N sulfuric acid (H2SO4) (R&D Systems, #DY994). The plate is read in a plate reader at the wavelengths […] and 570 nm (correction wavelength). Using Graphpad Prism, an XY table+graph is created, listing 0-60 minutes as X axis and concentration as Y axis. A One Phase Decay model fit is applied to the data. Checking Results table, the K values are obtained and new XY table+graph are created. Concentration is assigned to the X axis and K values from first analysis are entered. The Michaelis-Menten equation is applied to the data.
Background: In an ELISA, binding on a coated surface is turned into a signal by an enzyme label.

The nature of data set [1]: Plasma and total brain concentrations at 1 h post a single oral administration to female C57BL/6 mice. Format: in vivo. The settings on record: mouse, 1 h post single oral 10 mg/kg, LC-MS/MS, read-out: Brain:plasma ratio. On the procedure:
Determination of Plasma and Total Brain Concentrations at 1 h Post a Single Oral Administration of Test Compound to Female C57BL/6 Mice
The appropriate amount of test article was dissolved 10% dimethylacetamide (DMA)/90% (20% hydroxypropyl-b-cyclodextrin (HP-β-CD) w/v in water to obtain a final concentration of 1 mg/mL for oral dosing. Sonication, vortex, and homogenization was used as needed. Three female C57BL/6 mice aged 7-9 weeks (20-30 grams) were dosed by oral gavage 10 mg/kg solution of the test article.
Concentrations of representative test compounds in the plasma and brain samples (using plasma and brain homogenate standard curve for all samples appropriately) were analyzed using LC-MS/MS. With respect to the brain:plasma ratio, Table 11 lists the results as follows: • “A” denotes a ratio >0.5; • “B” denotes a ratio between 0.1 and 0.5; and • “C” denotes a ratio <0.1.

BTK, sequence (Q06187 whole entry): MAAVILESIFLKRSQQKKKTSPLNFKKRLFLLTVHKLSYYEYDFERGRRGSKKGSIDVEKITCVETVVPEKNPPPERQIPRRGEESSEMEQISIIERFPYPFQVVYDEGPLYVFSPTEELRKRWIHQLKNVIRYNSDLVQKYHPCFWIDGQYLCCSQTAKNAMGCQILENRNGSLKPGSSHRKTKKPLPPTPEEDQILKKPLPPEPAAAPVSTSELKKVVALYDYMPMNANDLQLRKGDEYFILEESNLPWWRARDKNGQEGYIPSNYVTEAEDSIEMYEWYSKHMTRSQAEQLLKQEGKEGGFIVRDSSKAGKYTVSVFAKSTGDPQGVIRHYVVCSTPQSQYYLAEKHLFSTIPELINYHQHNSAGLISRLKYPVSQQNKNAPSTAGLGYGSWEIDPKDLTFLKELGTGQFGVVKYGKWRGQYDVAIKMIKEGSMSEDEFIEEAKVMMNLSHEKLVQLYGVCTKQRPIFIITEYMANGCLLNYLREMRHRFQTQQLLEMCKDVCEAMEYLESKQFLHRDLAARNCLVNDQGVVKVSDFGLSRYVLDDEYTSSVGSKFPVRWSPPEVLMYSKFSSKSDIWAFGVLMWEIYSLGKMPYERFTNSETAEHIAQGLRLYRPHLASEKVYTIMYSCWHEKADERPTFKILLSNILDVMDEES

As for `CC#CC(=O)N1CCC[C@H]1c1nc(-c2ccc(C(=O)Nc3ccccn3)cc2)c2c(N)nccn12` [Acalabrutinib, reference compound], at BTK, the kinact/KI was less than 1670 M⁻¹ s⁻¹. For the same compound, the Kp at 1 h in data set [1] was less than 0.1.
On the same counts, the results for `CC#CC(=O)N[C@H]1CCCN(c2c(F)cc(C(N)=O)c3[nH]c(C)c(C)c23)C1` [Branebrutinib, reference compound] are more than 16700 M⁻¹ s⁻¹ and less than 0.1.
